According to patent US20190351029A1, “MODULATION OF ISCHEMIC CELL BIOENERGETICS” (East Carolina University, priority 2017, published 2019):
Where a name gives a salt, the structure may show the parent alone.

How the values were obtained:
[1] = system: endothelial (HUVEC) cells; experiment: AAV-mediated expression of PFKFB3 in endothelial cells; format: cell-based, human; conditions: HUVEC on Matrigel; PFKFB3 inhibited
Text: To begin examining the therapeutic potential of PFKFB3 in PAD, an AAV vector was generated to deliver PFKFB3 cloning the PFKFB3 coding sequence into an AAV2 ITR vector with expression driven by the ubiquitous cytomegalovirus promoter (CMV) promoter. AAV-PFKFB3 or control virus (AAV-DJ-GFP) was delivered to muscle (primary mouse myoblast) and endothelial (HUVEC) cells at a multiplicity of infection (MOI) of 10,000.

hypoxic cell growth = experiment: High-throughput hypoxic cell growth assays; format: cell-based
Text: In some embodiments, the presently disclosed subject matter relates to the discovery that genetically or pharmacologically enhancing glycolytic metabolism is protective against hypoxia/ischemia. Particularly, in accordance with some embodiments of the presently disclosed subject matter, it has been uncovered that elevated expression of the enzyme 6-phosphofructo-2-kinase/fructose-2,6-bisphosphatase 3 (PFKFB3), a potent allosteric activator of glycolysis, prevents ischemic injury and improves cell survival, while small molecular inhibition of PFKFB3 severely exacerbates ischemic injury. Thus, in some embodiments, the genetic target is PFKFB3. […] The compounds include, for example, metform in, phenformin, biperiden hydrochloride, clemastine, meclizine, berberine chloride, vinpocetine, pimozide, and mefloquine.
Many Food and Drug Administration (FDA) approved drugs and other chemical compounds have off-target effects on cellular metabolism, including the ability to enhance glycolytic metabolism. Cardiomyoblast (H9c2; obtained from ATCC) cells were treated with a number of compounds (berberine, clofoctol, phenformin, metformin, pentamidine, clemastine, pimoxide, bisacodyl, meclizine, mefloquine, papaverine, flunarizine, biperiden, vinpocetine, and niclosamide) at a final concentration of 1 μM prior to experimental hypoxia for 72 hours. […] Human kidney fibroblast cells were also treated with the compound prior to experimental hypoxia. […] In addition, primary mouse cortical neurons were treated with the compounds prior to experimental ischemia.

Which “effect on enhanced tube formation of AAV-DJ-PFKFB3 treated endothelial cells” value [1] does the source give for `O=C(C=Cc1ccc2ccccc2n1)c1ccncc1` [PFK15, 1-(4-pyridinyl)-3-(2-quinolinyl)-2-propen-1-one] here?
Its value is “abolished”.

Which “cell growth/survival in hypoxia” value (hypoxic cell growth) does the source give for `Cc1cccc(CN2CCN(C(c3ccccc3)c3ccc(Cl)cc3)CC2)c1` (stereo not drawn) [meclizine] here?
Its value is “improve cell growth/survival in hypoxia”.

`OC(c1cc(C(F)(F)F)nc2c(C(F)(F)F)cccc12)C1CCCCN1` (stereo not drawn) [mefloquine] was tested. Which “cell growth/survival in hypoxia” value (hypoxic cell growth) did it give?
Its value is “improve cell growth/survival in hypoxia”.

With `OC(CCN1CCCCC1)(c1ccccc1)C1CC2C=CC1C2` (stereo not drawn) [biperiden hydrochloride] as the molecule, how does the “cell growth/survival in hypoxia” value (hypoxic cell growth) read?
Its value is “improve cell growth/survival in hypoxia”.

With `COc1ccc2cc3[n+](cc2c1OC)CCc1cc2c(cc1-3)OCO2` [berberine chloride] as the molecule, how does the “cell growth/survival in hypoxia” value (hypoxic cell growth) read?
Its value is “improve cell growth/survival in hypoxia”.

For `CN1CCC[C@@H]1CCO[C@](C)(c1ccccc1)c1ccc(Cl)cc1` [clemastine], which “cell growth/survival in hypoxia” value (hypoxic cell growth) is on record?
Its value is “improve cell growth/survival in hypoxia”.

Which “cell growth/survival in hypoxia” value (hypoxic cell growth) does the source give for `CCOC(=O)C1=C[C@]2(CC)CCCN3CCc4c(n1c1ccccc41)[C@@H]32` [vinpocetine] here?
Its value is “improve cell growth/survival in hypoxia”.

For `CN(C)C(=N)N=C(N)N` [metform in, metformin], which “cell growth/survival in hypoxia” value (hypoxic cell growth) is on record?
The value was “improve cell growth/survival in hypoxia”.

With `[H]/N=C(/N)N/C(=N/[H])NCCc1ccccc1` [phenformin] as the molecule, how does the “cell growth/survival in hypoxia” value (hypoxic cell growth) read?
Its value is “improve cell growth/survival in hypoxia”.
